Results: US10077243B2, “Compounds for treating disorders mediated by metabotropic glutamate receptor 5, and methods of use thereof” (Sunovion Pharmaceuticals Inc., priority 2009, dated 2018)

Molecular target: T1, human mGluR5 (Homo sapiens, UniProt P41594)
T1 construct: expressed in transfected cells; host or cells: HEK293 cells stably expressing rat GLAST (EAAT1), stably transfected with pcDNAzeo3.1 carrying synthetic human mGluR5 DNA; zeocin-selected single clones
Assay: In vitro cell-based FLIPR calcium assay for positive modulation of the activation of mGluR5 by glutamate (PAM EC50)
Settings: HEK293/GLAST cells expressing recombinant human mGluR5; FLIPR calcium signal; glutamate added at its EC20; read-out: mGluR5 PAM EC50
From the text: The DNA sequences encoding the structural regions for rat mGluR5 [Abe T, Sugihara H, Nawa H, Shigemoto R, Mizuno N, Nakanishi S (1992) “Molecular characterization of a novel metabotropic glutamate receptor mGluR5 coupled to inositol phosphate/Ca^2+ signal transduction” Journal of Biological Chemistry vol. 267, no. 19, pp. 13361-8] and human mGluR5 [Daggett L P, Sacaan A I, Akong M, Rao S P, Hess S D, Liaw C, Urrutia A, Jachec C, Ellis S B, Dreessen J, Knöpfel T, Landwehrmeyer G B, Testa C M, Young A B, Varney M, Johnson E C, Veliçelebi (1995) “Molecular and functional characterization of recombinant human metabotropic glutamate receptor subtype 5” Neuropharmacology vol. 34, no. […] 53, no. 3, pp. 355-369] was obtained from Dr. Michael Robinson of the Children's Hospital of Philadelphia under a Material Transfer Agreement. The pcDNAzeo3.1 vector DNA, carrying either rat mGluR5 or human mGluR5, was used to transfect a sample of the HEK293/GLAST cells, and single clones that express mGluR5 were isolated from the transfected cells using zeocin selection. Expression of mGluR5 was assessed by measurement of the transient fluorescence signal elicited from HEK293/GLAST/mGluR5 cells by glutamate following the loading of the cells with a calcium-sensitive dye using a FLIPR Tetra (Fluorometric Imaging Plate Reader) (Molecular Devices, Sunnyvale, Calif.) [O'Brien J A, Lemaire W, Chen T B, Chang R S, Jacobson M A, Ha S N, Lindsley C W, Schaffhauser H J, Sur C, Pettibone D J, Conn P J, Williams D L Jr. […] 64, no. 3, pp. 731-740; Assay Guidance Manual Version 5.0, 2008, Eli Lilly and Company and NIH Chemical Genomics Center; available online HEK293/GLAST/mGluR5 cells were grown in Dulbecco's Modified Eagle Medium (DMEM) supplemented with 10% dialyzed fetal bovine serum, 20 millimolar (mM) N-2-hydroxyethylpiperazine-N′-2-ethanesulfonic acid (HEPES), penicillin, streptomycin, 1% GlutaMax™ (Invitrogen) and 50 μg/ml zeocin. Cells were grown in the media to 70-80% confluency at 37° C. under 5% CO2, 95% humidity in poly-D-lysine coated coated flasks. Cells for assays were plated into 96-well sterile standard microtiter plates (pre-coated with poly-D-lysine) at a density of 50,000 cells per well in 0.2 milliliters of media. Plated cells were allowed to settle and adhere for 30 minutes at ambient conditions, and then were incubated overnight at 37° C. under 5% CO2, 95% humidity. Several such 96-well plates were typically prepared. On the day of the assays, the components of the FLIPR calcium 4 assay kit (Molecular Devices) were dissolved according to the instructions of the dye kit's manufacturer in assay buffer (Hank's balanced salt solution (HBSS) (Gibco) supplemented with 20 mM HEPES). After removal of the growth media from the first plate, cells were loaded with calcium dye by addition of calcium dye solution (50 microliters per well) and incubation at 25° C. for 45 to 60 minutes. The first plate was placed into the FLIPR Tetra, and a dilution series of glutamate solutions in assay buffer were added to wells on the plate, followed by acquisition of fluorescence data for several minutes. The fluorescence data (maximal signal as a 4-parameter sigmoidal function of log [glutamate]) were processed by non-linear regression methods using the software package GraphPad Prism 5.01 (GraphPad Software Inc.), to yield a glutamate concentration-response curve (CRC). […] These values were, respectively, the concentrations of glutamate that elicit 20%, 50%, and 80% of the maximal FLIPR signal (observed at saturating [glutamate]). The method for measuring the concentration response of a potentiator, or positive allosteric modulator (PAM), is described here as an example. For that purpose, subsequent assays were typically performed using assay buffer containing a glutamate concentration equal to that day's EC20. […] Addition to certain wells of the same buffer containing 0.3% DMSO, but without any test compound, provided a negative control.

T1 sequence (P41594 21-1212): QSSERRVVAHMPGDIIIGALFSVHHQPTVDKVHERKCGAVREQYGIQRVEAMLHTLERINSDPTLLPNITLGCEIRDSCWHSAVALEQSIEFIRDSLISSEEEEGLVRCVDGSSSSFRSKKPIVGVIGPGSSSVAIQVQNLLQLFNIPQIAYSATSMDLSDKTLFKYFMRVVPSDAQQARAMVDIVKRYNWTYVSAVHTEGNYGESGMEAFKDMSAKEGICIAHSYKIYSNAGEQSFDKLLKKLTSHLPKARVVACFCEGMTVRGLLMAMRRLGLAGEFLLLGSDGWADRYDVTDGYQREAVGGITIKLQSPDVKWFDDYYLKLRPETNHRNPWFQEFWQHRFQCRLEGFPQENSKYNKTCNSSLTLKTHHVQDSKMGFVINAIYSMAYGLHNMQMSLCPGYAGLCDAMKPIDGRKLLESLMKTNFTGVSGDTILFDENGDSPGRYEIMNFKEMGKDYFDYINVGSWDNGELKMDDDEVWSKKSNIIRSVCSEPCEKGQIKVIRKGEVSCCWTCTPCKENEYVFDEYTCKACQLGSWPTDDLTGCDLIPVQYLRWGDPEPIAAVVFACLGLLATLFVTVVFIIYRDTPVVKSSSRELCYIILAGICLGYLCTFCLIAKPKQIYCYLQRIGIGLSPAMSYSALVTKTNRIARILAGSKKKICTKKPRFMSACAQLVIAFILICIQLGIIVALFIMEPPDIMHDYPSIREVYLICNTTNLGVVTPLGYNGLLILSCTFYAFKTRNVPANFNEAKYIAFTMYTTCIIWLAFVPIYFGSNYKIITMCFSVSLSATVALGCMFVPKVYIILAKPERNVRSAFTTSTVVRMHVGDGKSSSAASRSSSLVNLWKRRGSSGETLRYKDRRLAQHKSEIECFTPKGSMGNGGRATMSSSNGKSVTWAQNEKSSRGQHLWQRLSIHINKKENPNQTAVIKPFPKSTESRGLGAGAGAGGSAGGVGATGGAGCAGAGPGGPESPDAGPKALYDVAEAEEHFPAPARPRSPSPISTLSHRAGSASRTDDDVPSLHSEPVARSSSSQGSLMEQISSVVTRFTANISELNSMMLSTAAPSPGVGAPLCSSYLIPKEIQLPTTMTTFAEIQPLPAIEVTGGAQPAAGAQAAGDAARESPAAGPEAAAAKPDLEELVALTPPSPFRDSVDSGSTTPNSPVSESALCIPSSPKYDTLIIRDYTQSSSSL

EC50 | Compound
10 to 30 nM | O=c1c2ccc(C#Cc3ccc(F)cc3)cc2ncn1CC1CCCO1 (single isomer, unassigned) [1.15/1.16 faster moving enantiomer (fraction 1), 7-((4-fluorophenyl)ethynyl)-3-((tetrahydrofuran-2-yl)methyl)quinazolin-4(3H)-one]
100 to 300 nM | O=c1c2ccc(C#Cc3ccc(F)cc3)cc2ncn1CC1CCCO1 (single isomer, unassigned) [1.15/1.16 slower moving enantiomer (fraction 2), 7-((4-fluorophenyl)ethynyl)-3-((tetrahydrofuran-2-yl)methyl)quinazolin-4(3H)-one]
30 to 100 nM | CC1Cc2nc3cc(C#Cc4ccccn4)ccc3c(=O)n2C1 (single isomer, unassigned) [3.12/3.13 faster moving enantiomer (fraction 1), 2-methyl-6-(pyridin-2-ylethynyl)-2,3-dihydropyrrolo[2,1-b]quinazolin-9(1H)-one]
10 to 30 nM | CC1Cc2nc3cc(C#Cc4ccccn4)ccc3c(=O)n2C1 (single isomer, unassigned) [3.12/3.13 slower moving enantiomer (fraction 2), 2-methyl-6-(pyridin-2-ylethynyl)-2,3-dihydropyrrolo[2,1-b]quinazolin-9(1H)-one]
30 to 100 nM | COCC1CCc2nc3cc(C#Cc4ccccn4)ccc3c(=O)n2C1 (single isomer, unassigned) [4.34a/4.34b faster moving enantiomer (fraction 1), 8-(methoxymethyl)-3-(pyridin-2-ylethynyl)-8,9-dihydro-6H-pyrido[2,1-b]quinazolin-11(7H)-one]
30 to 100 nM | COCC1CCc2nc3cc(C#Cc4ccccn4)ccc3c(=O)n2C1 (single isomer, unassigned) [4.34a/4.34b slower moving enantiomer (fraction 2), 8-(methoxymethyl)-3-(pyridin-2-ylethynyl)-8,9-dihydro-6H-pyrido[2,1-b]quinazolin-11(7H)-one]
< 10 nM | CC1CCc2nc3cc(C#Cc4ccccn4)ccc3c(=O)n2CC1 (single isomer, unassigned) [6.10/6.11 faster moving enantiomer (fraction 1), 8-methyl-3-(pyridin-2-ylethynyl)-7,8,9,10-tetrahydroazepino[2,1-b]quinazolin-12(6H)-one]
30 to 100 nM | CC1CCc2nc3cc(C#Cc4ccccn4)cnc3c(=O)n2CC1 (single isomer, unassigned) [11.9a/11.9b faster moving enantiomer (fraction 1), 8-methyl-3-(pyridin-2-ylethynyl)-7,8,9,10-tetrahydropyrido[3′,2′: 4,5]pyrimido[1,2-a]azepin-12(6H)-one]
10 to 30 nM | CC1CCc2nc3cc(C#Cc4ccccn4)cnc3c(=O)n2CC1 (single isomer, unassigned) [11.9a/11.9b slower moving enantiomer (fraction 2), 8-methyl-3-(pyridin-2-ylethynyl)-7,8,9,10-tetrahydropyrido[3′,2′:4,5]pyrimido[1,2-a]azepin-12(6H)-one]
< 10 nM | CC1(F)CCc2nc3cc(C#Cc4ccccn4)ccc3c(=O)n2CC1 (single isomer, unassigned) [Example 6.48a/6.48b faster moving enantiomer (fraction 1), 8-fluoro-8-methyl-3-(pyridin-2-ylethynyl)-7,8,9,10-tetrahydroazepino[2,1-b]quinazolin-12(6H)-one]
< 10 nM | CC1(F)CCc2nc3cc(C#Cc4ccccn4)ccc3c(=O)n2CC1 (single isomer, unassigned) [Example 6.48a/6.48b slower moving enantiomer (fraction 2), 8-fluoro-8-methyl-3-(pyridin-2-ylethynyl)-7,8,9,10-tetrahydroazepino[2,1-b]quinazolin-12(6H)-one]
10 to 30 nM | COC1(C)CCc2nc3cc(C#Cc4ccccn4)ccc3c(=O)n2CC1 (single isomer, unassigned) [Example 6.50a/6.50b slower moving enantiomer (fraction 2), 8-methoxy-8-methyl-3-(pyridin-2-ylethynyl)-7,8,9,10-tetrahydroazepino[2,1-b]quinazolin-12(6H)-one]
30 to 100 nM | O=c1c2ccc(C#Cc3ccccn3)cc2nc2n1CC1CCCN1CC2 (single isomer, unassigned) [Example 9.4a/9.4b faster moving enantiomer (fraction 1), 9-(pyridin-2-ylethynyl)-2,3,5,6,14,14a-hexahydropyrrolo[2′,1′:3,4][1,4]diazepino[7,1-b]quinazolin-12(1H)-one]
100 to 300 nM | O=c1c2ccc(C#Cc3ccccn3)cc2nc2n1CC1CCCN1CC2 (single isomer, unassigned) [Example 9.4a/9.4b slower moving enantiomer (fraction 2), 9-(pyridin-2-ylethynyl)-2,3,5,6,14,14a-hexahydropyrrolo[2′,1′:3,4][1,4]diazepino[7,1-b]quinazolin-12(1H)-one]
300 to 1000 nM | O=c1[nH]cnc2cc(C#Cc3cccc(F)c3)ccc12 [Example 1.2, 7-((3-fluorophenyl)ethynyl)quinazolin-4(3H)-one]
100 to 300 nM | Cn1cnc2cc(C#Cc3ccccc3)ccc2c1=O [Example 1.3, 3-methyl-7-(phenylethynyl)quinazolin-4(3H)-one]
300 to 1000 nM | Cn1cnc2cc(C#Cc3nccs3)ccc2c1=O [Example 1.5, 3-methyl-7-(thiazol-2-ylethynyl)quinazolin-4(3H)-one]
100 to 300 nM | CCCn1cnc2cc(C#Cc3ccc(F)cc3)ccc2c1=O [Example 1.6, 7-((4-fluorophenyl)ethynyl)-3-propylquinazolin-4(3H)-one]
10 to 30 nM | CCCn1cnc2cc(C#Cc3cccc(F)c3)ccc2c1=O [Example 1.7, 7-((3-fluorophenyl)ethynyl)-3-propylquinazolin-4(3H)-one]
30 to 100 nM | O=c1c2ccc(C#Cc3cccc(F)c3)cc2ncn1CC1CC1 [Example 1.8, 3-(cyclopropylmethyl)-7-((3-fluorophenyl)ethynyl) quinazolin-4(3H)-one]
100 to 300 nM | O=c1c2ccc(C#Cc3ccc(F)cc3)cc2ncn1CC1CC1 [Example 1.9, 3-(cyclopropylmethyl)-7-((4-fluorophenyl)ethynyl)quinazolin-4(3H)-one]
30 to 100 nM | O=c1c2ccc(C#Cc3ccc(F)cc3)cc2ncn1C1CCCC1 [Example 1.10, 3-cyclopentyl-7-((4-fluorophenyl)ethynyl)quinazolin-4(3H)-one]
10 to 30 nM | O=c1c2ccc(C#Cc3cccc(F)c3)cc2ncn1C1CCCC1 [Example 1.11, 3-cyclopentyl-7-((3-fluorophenyl)ethynyl)quinazolin-4(3H)-one]
30 to 100 nM | COCCn1cnc2cc(C#Cc3ccc(F)cc3)ccc2c1=O [Example 1.12, 7-((4-fluorophenyl)ethynyl)-3-(2-methoxyethyl)quinazolin-4(3H)-one]
30 to 100 nM | O=c1c2ccc(C#Cc3ccc(F)cc3)cc2ncn1CC1CCCO1 (centres unmarked) [Example 1.13, 7-((4-fluorophenyl)ethynyl)-3-((tetrahydrofuran-2-yl)methyl)quinazolin-4(3H)-one]
300 to 1000 nM | O=c1c2ccc(C#Cc3ccc(F)cc3)cc2ncn1Cc1ccco1 [Example 1.14, 7-((4-fluorophenyl)ethynyl)-3-(furan-2-ylmethyl)quinazolin-4(3H)-one]
